From EP0118120A2, “1,4-Dihydropyridine compound” (priority 1983, dated 1984)

Columns and labels:
[1] = tested on: liver disorder induced by carbon tetrachloride; assay: Effect on liver disorder induced by carbon tetrachloride in rats, serum GOT, GPT, AlP, bilirubin (Example 26); type: in vivo, SLC-Wistar male rats
Experimental: (§1) Effect of the compounds according to the present invention on liver disorder induced by carbon tetrachloride
(§2) The effects of the sample compounds to be tested on hepatic disorder were evaluated by determining the levels of GOT, GPT, AlP, and bilirubin, which are known as an indicator of hepatic disorder, in serum, after administering carbon tetrachloride and the sample compounds to SLC-Wistar male rats (9 weeks old and body weight of 210 to 250 g in Tables 1, 3, and 4, and 10 weeks old and body weight of 230 to 260 g in Table 2) as follows.
(§3) Five rats were used in each test group. The sample compound (i.e., each compound listed below) was suspended at a concentration of 40 mg/ml in a 0.1% aqueous solution of Tween-80 (i.e., nonionic surfactant available from Atlas Powder Co., Ltd.). The resultant suspension was orally administered at a dose of 200 mg/kg each at 25 hours and 1 hour before the administration of carbon tetrachloride, except for the control group. For the control group to which only carbon tetrachloride was administered in the evaluation test, a 0.1% aqueous Tween-80 was orally administered at a dose of 5 ml/kg in the same manner.
(§4) Carbon tetrachloride was intraperiotoneally administered as a 10% olive oil solution at a dose of 5 ml/kg (0.5 ml/kg in terms of CC14) one hour after the final administration of the sample compound. For the control (normal) group, olive oil was intraperitoneally administered in the same manner at a dose of 5 ml/kg.
(§5) Blood samples were collected from the carotid artery under pentobarbital anesthesia, 24 hours after the administration of carbon tetrachloride. The rats were fasted for 18 to 22 hours before collecting the blood samples.
(§6) The determination of GOT and GPT in serum was carried out according to a UV method, the determination of AlP was carried cut according to Bessy-Lowry method, and the determination of bilirubin was carried out according to a diazo method.

[2] = tested on: liver disorder induced by carbon tetrachloride; assay: Effect on liver disorder induced by carbon tetrachloride in rats, repeat with 8 weeks old rats (Example 27); type: in vivo, SLC-Wistar male rats; details: serum 24 hours after CCl4, 200 mg/kg orally x2, rats 8 weeks old
Experimental: as §2, §3, §4, §5, §6, §1
The evaluation tests of Example 26 were repeated except that SLC-Wistar male rats (8 weeks old and body weight of 170 to 210 g) were used.

[3] = Acute toxicity, oral LD50 in rats (Example 28); details: rat, in vivo, male rats 5 weeks old, 130 to 150 g, observed for one week
Excerpt: Acute toxicity of the compounds according to the present invention

[4] = Table 4, serum 24 hours after CCl4, 200 mg/kg orally x2, rats 9 weeks old, CCl4 only 0.38 ± 0.04, normal 0.10 ± 0.00
[5] = Table 4, serum 24 hours after CCl4, 200 mg/kg orally x2, rats 9 weeks old, CCl4 only 35.0 ± 2.0, normal 24.4 ± 0.7
[6] = Table 4, serum 24 hours after CCl4, 200 mg/kg orally x2, rats 9 weeks old, CCl4 only 10523 ± 2313, normal 31 ± 3
[7] = Table 4, serum 24 hours after CCl4, 200 mg/kg orally x2, rats 9 weeks old, CCl4 only 17704 ± 4140, normal 76 ± 4
[8] = Table 1, serum 24 hours after CCl4 0.5 ml/kg i.p., compound 200 mg/kg orally 25 hours and 1 hour before CCl4, rats 9 weeks old, CCl4 only 17327 ± 2336, normal 76 ± 1
[9] = Table 1, serum 24 hours after CCl4, 200 mg/kg orally x2, rats 9 weeks old, CCl4 only 0.62 ± 0.30, normal 0.10 ± 0.00
[10] = Table 1, serum 24 hours after CCl4, 200 mg/kg orally x2, rats 9 weeks old, CCl4 only 35.5 ± 2.5, normal 23.6 ± 0.4
[11] = Table 1, serum 24 hours after CCl4, 200 mg/kg orally x2, rats 9 weeks old, CCl4 only 10496 ± 1221, normal 31 ± 2
[12] = Table 5, 170 to 210 g, CCl4 only 27875 ± 3628, normal 78 ± 3
[13] = Table 5, CCl4 only 0.55 ± 0.16, normal 0.10 ± 0.00
[14] = Table 5, CCl4 only 41.3 ± 2.5, normal 25.7 ± 0.4
[15] = Table 5, CCl4 only 12984 ± 1465, normal 30 ± 3
[16] = Table 3, serum 24 hours after CCl4, 200 mg/kg orally x2, rats 9 weeks old, CCl4 only 0.38 ± 0.06, normal 0.22 ± 0.04
[17] = Table 3, serum 24 hours after CCl4, 200 mg/kg orally x2, rats 9 weeks old, CCl4 only 34.4 ± 2.6, normal 27.0 ± 0.5
[18] = Table 3, serum 24 hours after CCl4, 200 mg/kg orally x2, rats 9 weeks old, CCl4 only 9188 ± 1815, normal 30 ± 2
[19] = Table 3, serum 24 hours after CCl4, 200 mg/kg orally x2, rats 9 weeks old, CCl4 only 13189 ± 2205, normal 81 ± 3

For COC(=O)C1=C(C)NC(C)=C(C(=O)OC(C)C)C1C1=COCCO1 (centres unmarked) [Sample Compound K, isopropyl methyl 4-[2-(5,6-dihydro-p-dioximyl)]-2,6-dimethyl-1,4-dihydropyridine-3,5-dicarboxylate], the Bilirubin [1, 4] was 0.24 ± 0.02 mg/dL, the AlP [1, 5] was 29.6 ± 0.8 K-AU and the GPT [1, 6] was 1657 ± 436 K.U. For the same molecule, the GOT [1, 7] was 2290 ± 619 K.U.

Molecule COCC(C)OC(=O)C1=C(C)NC(C)=C(C(=O)OC(C)COC)C1C1=COCCO1 (centres unmarked) [Sample Compound D, bis(1-methyl-2-methoxyethyl) 4-[2-(5,6-dihydro-p-dioxinyl)]-2,6-dimethyl-l,4-dihydropyridine-3,5-dicarboxylate] has a GOT [1, 8] of 2572 ± 518 K.U, a Bilirubin [1, 9] of 0.20 ± 0.00 mg/dL and an AlP [1, 10] of 31.0 ± 1.5 K-AU. The GPT [1, 11] was 2050 ± 419 K.U.

In the case of COCOC(=O)C1=C(C)N(COC)C(C)=C(C(=O)OCOC)C1C1=COCCO1 [Sample Compound S, bis(methoxymethyl) 4-[2-(5,6-dihydro-p-dioxinyl)]-1-methoxymethyl-2,6-dimethyl-1,4-dihydropyridine-3,5-dicarboxylate], the GOT [2, 12] is reported as 461 ± 162 K.U, the Bilirubin [2, 13] is reported as 0.10 ± 0.00 mg/dL and the AlP [2, 14] is reported as 26.3 ± 0.8 K-AU. For the same molecule, the GPT [2, 15] was 313 ± 120 K.U.

COCCOC(=O)C1=C(C)NC(C)=C(C(C)=O)C1C1=COCCO1 (centres unmarked) [Sample Compound N, 2-methoxyethyl 5-acetyl-4-[2-(5,6-dihydro-p-dioxinyl)]-2,6-dimethyl-1,4-dihydropyridine-3-carboxylate] showed a Bilirubin [1, 4] of 0.18 ± 0.02 mg/dL, an AlP [1, 5] of 28.5 ± 1.7 K-AU and a GPT [1, 6] of 2860 ± 858 K.U. The GOT [1, 7] was 3430 ± 922 K.U.

COC(=O)C1=C(C)NC(C)=C(C#N)C1C1=COCCO1 (centres unmarked) [Sample Compound C, methyl 5-cyano-4-[2-(5,6-dihydro-p-dioxinyl)]-2,6-dimethyl-1,4-dihydropyridine-3-carboxylate] showed a GOT ([1]; Table 2, serum 24 hours after CCl4, 200 mg/kg orally x2, rats 10 weeks old, 230 to 260 g, CCl4 only 20701 ± 2821, normal 89 ± 12) of 1447 ± 313 K.U, a Bilirubin ([1]; Table 2, serum 24 hours after CCl4, 200 mg/kg orally x2, rats 10 weeks old, CCl4 only 0.40 ± 0.09, normal 0.10 ± 0.00) of 0.20 ± 0.00 mg/dL and an AlP ([1]; Table 2, serum 24 hours after CCl4, 200 mg/kg orally x2, rats 10 weeks old, CCl4 only 32.3 ± 2.8, normal 22.7 ± 0.6) of 31.7 ± 3.2 K-AU. The GPT ([1]; Table 2, serum 24 hours after CCl4, 200 mg/kg orally x2, rats 10 weeks old, CCl4 only 11034 ± 1354, normal 41 ± 3) was 912 ± 198 K.U.

In the case of CC(=O)C1=C(C)NC(C)=C(C#N)C1C1=COCCO1 (centres unmarked) [Sample Compound B, 3-acetyl-5-cyano-4-[2-(5,6-dihydro-p-dioxinyl)]-2,6-dimethyl-l,4-dihydropyridine], the GOT [1, 8] is reported as 1604 ± 569 K.U, the Bilirubin [1, 9] is reported as 0.20 ± 0.00 mg/dL and the AlP [1, 10] is reported as 34.1 ± 3.4 K-AU. The GPT [1, 11] was 1023 ± 368 K.U.

COCCOC(=O)C1=C(C)NC(C)=C(C(=O)OCCOC)C1C1=COCCO1 [Sample Compound J, bis (2-methoxyethyl) 4-[2-(5,6-dihydro-p-dioxinyl)]-2,6-dimethyl-1,4-dihydropyridine-3,5-dicarboxylate] showed a Bilirubin [1, 4] of 0.18 ± 0.03 mg/dL, an AlP [1, 5] of 27.4 ± 2.6 K-AU and a GPT [1, 6] of 626 ± 179 K.U. The GOT [1, 7] was 807 ± 211 K.U and the LD50 at 168 h [3] was over 1000 mg/kg.

Work on COC(=O)C1=C(C)NC(C)=C(C(=O)OC)C1C1=C(C)OC(C)CO1 (centres unmarked) [Sample Compound T, dimethyl 2,6-dimethyl-4-[2-(3,5-dimethyl-5,6-dihydro-p-dioxinyl)] -1,4-dihydropyridine-3,5-dicarbcxylate] yielded a GOT [2, 12] of 5538 ± 954 K.U, a Bilirubin [2, 13] of 0.25 ± 0.03 mg/dL and an AlP [2, 14] of 34.4 ± 1.7 K-AU. The GPT [2, 15] was 4156 ± 196 K.U.

Work on CC(=O)C1=C(C)NC(C)=C(C(C)=O)C1C1=COCCC1 [Sample Compound P, 3,5-diacetyl-4-[5-(3,4-dihydro-2H-pyranyl)]-2,6-dimethyl-1,4-dihydropyridine] yielded a Bilirubin [1, 16] of 0.32 ± 0.02 mg/dL, an AlP [1, 17] of 35.1 ± 1.4 K-AU and a GPT [1, 18] of 616 ± 193 K.U. It also gave a GOT [1, 19] of 899 ± 252 K.U.

Molecule CC(=O)C1=C(C)NC(C)=C(C(C)=O)C1C1=COCCO1 [Sample Compound L, 3,5-diacetyl-4-[2-(5,6-dihydro-p-dioxinyl)]-2,6-dimethyl-1,4-dihydropyridine] has a Bilirubin [1, 4] of 0.22 ± 0.02 mg/dL, an AlP [1, 5] of 34.2 ± 1.5 K-AU and a GPT [1, 6] of 285 ± 96 K.U. The GOT [1, 7] was 429 ± 113 K.U and the LD50 at 168 h [3] was over 1000 mg/kg.

With CC(=O)C1=C(C)NC(C)=C(C(C)=O)C1C1=C(C)OCCO1 [Sample Compound W, 3,5-diacetyl-2,6-dimethyl-4-[2-(3-methyl-5,6-dihydro-p-dioxinyl)]-1,4-dihydropyridine] the Bilirubin ([2]; Table 6, CCl4 only 0.50 ± 0.08, normal 0.12 ± 0.02) was 0.20 ± 0.00 mg/dL, the AlP ([2]; Table 6, CCl4 only 52.5 ± 2.2, normal 36.3 ± 1.6) was 49.5 ± 3.0 K-AU and the GPT ([2]; Table 6, CCl4 only 12606 ± 1688, normal 39 ± 4) was 805 ± 195 K.U. The GOT ([2]; Table 6, CCl4 only 23424 ± 3360, normal 79 ± 2) was 1194 ± 234 K.U.

In the case of COC(=O)C1=C(C)NC(C)=C(C(C)=O)C1C1=COCCO1 (centres unmarked) [Sample Compound M, methyl 5-acetyl-4-[2-(5,6-dihydro-p-dioxinyl)]-2,6-dimethyl-l,4-dihydropyridine-3-carboxylate], the Bilirubin [1, 4] is reported as 0.20 ± 0.00 mg/dL, the AlP [1, 5] is reported as 29.1 ± 1.1 K-AU and the GPT [1, 6] is reported as 428 ± 88 K.U. For the same molecule, the GOT [1, 7] was 807 + 176 K.U.

With CC(=O)C1=C(C)NC(C)=C(C(C)=O)C1C1=CSCCS1 [Sample Compound Q, 3,5-diacetyl-4-[2-(5,6-dihydro-1,4-dithiinyl)]-2,6-dimethyl-1,4-dihydropyridine] the Bilirubin [1, 16] was 0.26 ± 0.02 mg/dL, the AlP [1, 17] was 29.8 ± 1.3 K-AU and the GPT [1, 18] was 1891 ± 357 K.U. It also gave a GOT [1, 19] of 2583 ± 540 K.U.

Molecule CC1=C(C(=O)OC(C)C)C(C2=COCCO2)C(C(=O)OC(C)C)=C(C)N1 [Sample Compound G] has a Bilirubin [1, 4] of 0.22 ± 0.02 mg/dL, an AlP [1, 5] of 31.5 ± 1.2 K-AU and a GPT [1, 6] of 2994 ± 638 K.U. For the same molecule, the GOT [1, 7] was 3482 ± 707 K.U.

COCOC(=O)C1=C(C)NC(C)=C(C(=O)OCOC)C1C1=C(C)OC(C)CO1 (centres unmarked) [Sample Compound U, bis (methcxymethyl) 2,6-dimethyl-4-[2-(3,5-dimethyl-5,6-dihydro-p-dioxinyl)]-1,4-dihydropyridine-3,5-dicarboxylate] showed a GOT [2, 12] of 608 ± 214 K.U, a Bilirubin [2, 13] of 0.10 ± 0.00 mg/dL and an AlP [2, 14] of 27.0 ± 1.0 K-AU. It also gave a GPT [2, 15] of 384 ± 135 K.U.
